Assays:
[1] = tested on: human leukaemia KG-1 subcutaneous xenograft; test: In vivo efficacy in leukaemia model, subcutaneous xenograft; details: KG-1 xenograft, CB-17 SCID mice, oral 25 BID, 50 and 100 mg/kg QD, 21 days
Protocol: The anti-tumour efficacy of the compound of Example 1 was measured in human leukaemia KG-1 subcutaneous xenograft models in CB-17 SCID mice.
Mice grouping was on day 0 (DO) and Example 1 25 BID*21 group was started on the evening of day 0 (DO), other groups were started on the morning of day 1 (D1). At the 21 days of the treatment, 8 h and 24h post the last dose, 4 mice each from vehicle group, Example 1 25 mg/kg BID group and Example 1 50 mg/kg group were subjected tumour collection.
Animals: Female mice (Mus musculus) strain: CB-17 SCID; 6-8 weeks old Body weight: 18-20 g; were obtained from Shanghai Lingchang BioTech Co., Ltd. Of the 59 obtained, 40 were grouped for efficacy study. The mice were kept in individual ventilation cages at constant temperature (20˜26° C.) and humidity (40-70%) with 5 animals in each cage. […]
Tumour Measurements and the Endpoints: The major endpoint was tumour growth delay or cure. Tumour size was measured thrice weekly in two dimensions using a caliper, and the volume was expressed in mm^3 using the formula: V=0.5 a×b^2 where a and b were the long and short diameters of the tumour, respectively. […] TGI was calculated according to the following equation: […]

HL-60 = test: In vitro potency against leukemia cell lines (CellTiter Glo); format: cell-based; details: Homo sapiens, 72 hours, read-out: absolute IC50 HL-60
Protocol: (§1) To prepare the complete medium FBS and appropriate additives were added according to the information sheet provided by the vendor and mixed gently. The cell name and complete medium and passage number marked on the flask were checked, and the culture medium removed and discarded using a vacuum pump. […] 3.0 ml of Trypsin-EDTA solution was added to the flask and the cells observed under an inverted microscope until cell layer is dispersed. 8.0 ml of complete growth medium was added and the cells aspirated by gently pipetting. The cell suspension was transferred to a centrifuge tube and centrifuged at 800-1000 rpm for 3-5 minutes. The supernatant was discarded using a vacuum pump, and an appropriate volume of complete medium added. The cell pellet was suspended by gently pipetting, and the cell numbers counted with Vi-cell XR and the cells adjusted to appropriate density. 100 μL of cell suspension to 96-well opaque-walled clear bottom plates was added according to the planned plate layout and the plates placed in the CO2 incubator overnight.
(§2) c. […] Meanwhile the day 0 plate was measured by Cell TiterGlo as listed below.
(§3) d. Cells were incubated with the compounds for 72 h at 5% CO2, 37° C.
(§4) The plate and its contents were equilibrated to room temperature for approximately 30 minutes, after which 100 μL of CellTiter-Glo reagent was added to the assay plate by Multidrop Combi instrument and the contents mixed for 10 minutes on an orbital shaker to induce cell lysis. The plate was allowed to incubate at room temperature for 10 minutes to stabilize luminescent signal and the clear bottom pasted with white back seal and the luminescence recorded with Enspire with the settings: Luminescence, measurement time 0.1 ms.
(§5) In all cases, the incubation time was 72 hours and the cell lines were grown as a suspension. The seeding density was […] in a 96 well plate.

KG-1 = test: as above; format: cell-based; details: Homo sapiens, 72 hours, read-out: absolute IC50 KG-1
Protocol: as §1, §2, §3, §4, §5

Jeko-1 = test: as above; format: cell-based; details: Homo sapiens, 72 hours, read-out: absolute IC50 JeKo-1
Protocol: as §1, §2, §3, §4, §5

MV-4-11 = test: as above; format: cell-based; details: Homo sapiens, MV4-11; 72 hours; read-out: absolute IC50 MV-4-11
Protocol: as §1, §2, §3, §4, §5

Kasumi-3 = test: as above; format: cell-based; details: 72 hours, read-out: absolute IC50 Kasumi-3
Protocol: as §1, §2, §3, §4, §5

Molm-13 = test: as above; format: cell-based; details: Homo sapiens, 72 hours, read-out: absolute IC50 Molm-13
Protocol: as §1, §2, §3, §4, §5

OCI-M1 = test: as above; format: cell-based; details: 72 hours, read-out: absolute IC50 OCI-M1
Protocol: as §1, §2, §3, §4, §5

IC50 (HL-60): 8.75 µM
IC50 (KG-1): 0.715 µM
IC50 (Jeko-1): 6.54 µM
IC50 (MV-4-11): 0.907 µM
IC50 (Kasumi-3): 0.232 µM
IC50 (Molm-13): 9.34 µM
IC50 (OCI-M1): > 10 µM
SMILES: CN1CCOc2c1c(N[C@H]1CC[C@@](C)(O)CC1)nn1c(-c3cccc(OC(F)(F)F)c3)nnc21 [Example 1, 1-Methyl-4-[6-methyl-3-(3-trifluoromethoxy-phenyl)-7,8-dihydro-6H-9-oxa-1,2,3a,4,6-pentaaza-cyclopenta[a]naphthalen-5-ylamino]-cyclohexanol]
anti-tumour efficacy (tumour volume) [1]: effective
